Data set [1] has as its system NIH 3T3 fibroblast cells. Nature of the data set: Cytotoxicity, MTT assay. The format is cell-based. Particulars: Mus musculus, NIH3T3, 24 h, 37 °C, 800 to 1.6 μg/mL, 50% cell viability. How it is done:
(§1) Cytotoxicity assay. Cytotoxicity tests were performed on NIH 3T3 fibroblast cells, endothelial cells (HUVEC), macrophage (RAW264.7), liver cells (LO2), kidney cells (COS7) and enterocyte (NCM-460) using MTT assay. Cells were cultured in DMEM supplemented with 10% FBS, 5% penicillin, 2 mM L-glutamine and incubated at 37 °C in 5% CO 2. Cells were harvested and seeded onto 96-well plates at a density of 1.0 × 10^4 cells per well and incubated for 24 h. On each plate, wells containing growth medium only and cells in growth medium without any antifungal agent were used as the negative and positive control, […]
(§2) concentrations ranging from 800 to 1.6 μg/mL. Medium in each cell-containing well was replaced with 100 μL of the corresponding polymer solution, and the plates were incubated at 37 °C for 24 h. Then, the solution in each well was switched to 100 µL MTT solution (1 mg/mL) and the plate was incubated in the dark at 37 °C for 4 h. After centrifuge (to prevent the possible loss of formazan crystals) and removal of the supernatant, 100 μL DMSO was added to each well to dissolve the formed formazan under stirred for 20 min. Then 85 µL of the supernatant from each well was transferred to the corresponding well in a new plate, followed by absorbance measurement at 570 nm on a plate reader. Each antifungal agent was tested in triplicate in each assay, and the experiment was conducted at least twice on a different day. The percentage of cell viability in each test well, relative to the positive control (which defines 100%) w as calculated from [% fibroblast growth = (A polymer – Ablank)/(Acontrol – A blank) × 100]. The IC 50 value is the minimum concentration to inhibit 50% of fibroblast cell growth. All measurements were performed with three replicates.
In general terms: Formazan colour is commonly taken as a measure of viable cells.

Data set [2] deals with liver cells (LO2). The data set is described as follows: Cytotoxicity, MTT assay. It is filed as cell-based. Particulars: 24 h, 37 °C, 800 to 1.6 μg/mL, 50% cell viability. On the procedure: as §1, §2
Data set [3] has as its system various mammalian cells. The data set is described as follows: Cytotoxicity, MTT assay, summary over cell types. The format is cell-based. Particulars: HUVEC, RAW264.7, LO2, COS7, NCM‐460, 24 h, read-out: IC50 for cells other than fibroblast (range). How it is done: as §1
concentrations ranging from 800 to 1.6 μg/mL. Medium in each cell-containing well was replaced with 100 μL of the corresponding polymer solution, and the plates were incubated at 37 °C for 24 h. Then, the solution in each well was switched to 100 µL MTT solution (1 mg/mL) and the plate was incubated in the dark at 37 °C for 4 h. […] Then 85 µL of the supernatant from each well was transferred to the corresponding well in a new plate, followed by absorbance measurement at 570 nm on a plate reader. […] The percentage of cell viability in each test well, relative to the positive control (which defines 100%) w as calculated from [% fibroblast growth = (A polymer – Ablank)/(Acontrol – A blank) × 100]. […]

The test system of data set [4] is C. neoformans. Nature of the data set: MFC assay, plating after the MIC test. Further: kills > 99.9%. It is filed as cell-based. Particulars: Cryptococcus neoformans, 48 h. How it is done:
(§3) In vitro antifungal assays. The MIC assays for C. albicans (K1, SC5314, Gu5, ATCC90028, R01, R02, R03 and R04 strains) and C. neoformans (H99, MYA737 and JEC21 strains) were conducted according to a previously described protocol. The cultured fungal cells were collected at 2.5 × 10^3 CFU/mL in RPMI 1640 medium to give the working suspension. Two- […]
(§4) Then 50 µL of the cell suspension was added to each well. Wells containing cells in RPMI without any polymer or antifungal drug were used as drug-free controls, and wells containing RPMI medium only were used as cell-free controls. The plate was gently stirred for 10 seconds and then incubated at 30 °C. After C. albicans and C. neoformans cells were incubated for 24 h and 48 h, respectively, fungal cell growth was checked visually. The MIC values were identified as the lowest concentration […]
(§5) The MFC assay for Candida and Cryptococcus was conducted after the MIC test.
(§6) An aliquot of 3 µL premixed suspension from each well was plated on the yeast extract-peptone-dextrose (YPD) agar. The plates were incubated at 30 °C for 24 h and 48 h, respectively, for C. albicans cells and C. neoformans cells. Then the plate was inspected visually for colony formation. […]

Data set [5] has as its system C. albicans. The data set is described as follows: MFC assay, plating after the MIC test. Further: kills > 99.9%. It is filed as cell-based. Particulars: Candida albicans. On the procedure: as §3, §4, §5, §6
Data set [6] deals with BALB/c mice eyes. The format is in vivo, mouse. Particulars: 15 mg mL^−1 eye drops every 5 min for 1 h, then every 30 min for 7 h; male BALB/c, n = 3. On the procedure: Medicine (Accreditation number of the laboratory: SHDSYY-2021-1729). The experiment
method. […] AmpB was
(2.5% DMSO in final solution).
The organs (kidney, liver, and
14th day for histological analysis and blood biochemistry analysis.
30 min during the next 7 h.
C. albicans biofilm formation on contact lenses. The contact lenses (Biomedic ®, Cooper
Then the discs were transferred to a
and incubated at rt with shaking at 100 rpm. After 6 hours of incubation, the suspension was […]

In data set [7] the test system is C. albicans biofilm formation. Nature of the data set: Inhibition of biofilm formation (MTT). The format is cell-based, Candida albicans. Particulars: RPMI, 37 °C, 48 h, inhibits 80% of biofilm formation. How it is done: fresh non-treated cell suspension was used as a control. The bright field and FITC fluorescence were collected under 100× oil immersion lenses, with representative areas in the images electronically amplified sixfold.
Anti-biofilms. This study was conducted in 96-well plates (flat bottom and tissue-culture treated) by following the reported protocol with slight modifications. On each plate, wells containing RPMI only and cells in medium without any antifungal agent were used as the negative and positive control, respectively.
For biofilm formation: Freshly cultured fungal cells were collected to prepare the working suspension at 1.0 × 10^6 CFU/mL in RPMI. A two-fold serial dilution for each antifungal agent was prepared using a corresponding medium in a 96-well plate to give 100 µL of polymer solution in each well. 100 µL of the working suspension was added to each […]
followed by addition of 100 µL MTT solution (1 mg/mL). The MTT assay protocol was the same as the above mentioned protocol in fibroblast cell toxicity assay. This value was calculated from [% biofilm growth = (A polymer – Ablank)/(Acontrol – Ablank) × 100] and plotted against polymer concentration to give the dose-response graphs for inhibition of biofilm formation for each antifungal agent. The SMIC 80 value is the minimum concentration of a given agent that is necessary to inhibit 80% of fungal biofilm formation. […]

In brackets after ≈: the same amount, converted by molar mass. Read-outs that look alike come from different tables or passages of the source.

One may read the IC50 as the concentration that inhibits the measured activity by half. Consider `C[C@@H]1[C@H](O)[C@@H](C)/C=C/C=C/C=C/C=C/C=C/C=C/C=C/[C@H](O[C@@H]2O[C@H](C)[C@@H](O)[C@H](N)[C@@H]2O)C[C@@H]2O[C@](O)(C[C@@H](O)C[C@@H](O)[C@H](O)CC[C@@H](O)C[C@@H](O)CC(=O)O[C@H]1C)C[C@H](O)[C@H]2C(=O)O` [AmpB, amphotericin B], for which the half-inhibitory concentration (IC50) was 1.6 µg/mL (≈ 1.73 µM) in data set [1], 77 µg/mL (≈ 83.3 µM) in data set [2] and 8.8 to 128 µg/mL (≈ 9.52 to 139 µM) in data set [3]. The MFC in data set [4] (read-out: MFC C. neoformans JEC21) was 1.6 µg/mL (≈ 1.73 µM); in data set [4] (read-out: MFC C. neoformans MYA737), 1.6 µg/mL (≈ 1.73 µM); in data set [5] (24 h, read-out: MFC C. albicans R01), 1.6 µg/mL (≈ 1.73 µM); in data set [5] (24 h, read-out: MFC C. albicans R03) it was 1.6 µg/mL (≈ 1.73 µM); in data set [5] (ATCC90028, 24 h, read-out: MFC C. albicans ATCC90028), 1.6 µg/mL (≈ 1.73 µM); in data set [5] (SC5314, 24 h, read-out: MFC C. albicans SC5314) it was 1.6 µg/mL (≈ 1.73 µM).

In the case of poly(DL‐diaminopropionic acid) [PDAP20], the “Corneal histology (H&E) after topical administration” value in data set [6] was “no obvious toxicity”. For the same compound, in data set [7], the “Concentration that resists biofilm formation (SMIC80)” value turned out to be 6.3 µg/mL.

These data come from PMC9108603, “Microbial Metabolite Inspired β‐Peptide Polymers Displaying Potent and Selective Antifungal Activity” (Advanced Science, 2022).
